Consider three molecules from patent EP0137083A1, “1,5-Benzothiazepine derivatives and production thereof” (HAMARI YAKUHIN KOGYO KABUSHIKI KAISHA also known as HAMARI …, priority 1983, dated 1985).

Type in all cases: in vivo
The subject of one series is writhing syndrome. The experiment in a line: Analgesic activity, mouse anti-writhing method (acetic acid-induced writhing). Conditions: mice, I.P., 45 minutes before acetic acid. The procedure:
(2) Analgestic Activity (Mouse Anti-Writhing Method)
Groups of 5 mice each, weighing 26 - 32 g, were treated intraperitoneally with the compounds. The method is based on the antagonism of a writhing syndrome (abnormal contraction and twisting of the body) produced by the intraperitoneal injection of 10 ml/kg of 0.7 X acetic acid-saline solution. Ten minutes after the acetic acid injection, the number of writhes observed in a 10 minute counting period was recorded. The compound was administered 45 minutes before the acetic acid injection.

Series [1] concerns Yeast-induced Pyresis in Rats. The experiment in a line: Anti-pyretic activity, temperature regulation in yeast-induced pyretic rats. Conditions: I.P.; for Rectal Temperature (C^o, Mean+ S.D.), Time after Treatment (hour) 0: 0 hour (just prior to drug administration); for Rectal Temperature (C^o, Mean+ S.D.), Time after Treatment (hour) 0.5: 0.5 hour; for Rectal Temperature (C^o, Mean+ S.D.), Time after Treatment (hour) 1.0: 1.0 hour; for Rectal Temperature (C^o, Mean+ S.D.), Time after Treatment (hour) 1.5: 1.5 hour; for Rectal Temperature (C^o, Mean+ S.D.), Time after Treatment (hour) 2.0: 2.0 hour; for Rectal Temperature, Change C^o: average at 0.5-2.0 hours versus vehicle (39.8). The procedure:
(3) Anti-pyretic Activity (Temperature Regulation in Pyretic Rats) Rats, weighing 220 - 300 g, were treated subcutaneously in the nape of the neck with 6 ml of 40 % suspension of dried Brewer's yeast in distilled water. Groups of 3 rats were treated intraperitoneally with the compound 17 hours challenge. Rectal temperature were recorded with a thermister type thermometer (Type BMA-77 produced by Natsume Seisalusho, Japan) just prior to the drug administration and at 30 minutes intervals for 2 hours.

The subject of another series is Mice. The experiment in a line: Minimum lethal dose test in mice (mortality after intraperitoneal dosing). The following applies: I.P.; for No. of dead Animals, Day of test 0 / No. of dead Animals, Day of test 1 / No. of dead Animals, Day of test 2 / No. of dead Animals, Total: 2 animals. The protocol:
(1) Minimum Lethal Dose Test in Mice
Groups of 2 mice each, weighing 29 - 36 g, were treated intraperitoneally with the compound and observed for signs of - central, autaonomic and toxic responses for 5 hours. Mortality counts were made on days 0, 1 and 2 (day 0 is the dosing day).

Where [2] appears, read: 30 mg/kg, first series (vehicle 10.9 ± 8.9).
The mark [3] stands for this setting: 60 mg/kg, first series (vehicle 10.9 ± 8.9).
[4] abbreviates: 60 mg/kg, second series (vehicle 12.8 ± 6.3).

As to `CC(C)=CCN1CCC2(C)c3cc(O)ccc3CC1C2C` (centres unmarked) [Pentazo-cine, reference compound], in the series on writhing syndrome (setting [2]), the “% Change from Control” value is on record as -83.5% and the “No. of Writhes (Mean + S.D.)” value is given as 1.8 ± 2.2.
In the case of `Cc1c(N(C)C)c(=O)n(-c2ccccc2)n1C` [Amino-pyrin, reference compound], in series [1] (30 mg/kg), the “Rectal Temperature, Average at 0.5-2.0 Hours Post-tretment” value was found to be 37.5 C^o; the “Rectal Temperature (C^o, Mean+ S.D.), Time after Treatment (hour) 0” value was 39.6±0.10 C^o; the “Rectal Temperature (C^o, Mean+ S.D.), Time after Treatment (hour) 0.5” value came to 38.1±0.50 C^o; the “Rectal Temperature (C^o, Mean+ S.D.), Time after Treatment (hour) 1.0” value is listed as 37.2±0.58 C^o. Besides, in series [1] (30 mg/kg), the “Rectal Temperature (C^o, Mean+ S.D.), Time after Treatment (hour) 1.5” value turned out to be 37.2±0.53 C^o; the “Rectal Temperature (C^o, Mean+ S.D.), Time after Treatment (hour) 2.0” value came to 37.4±0.46 C^o; the “Rectal Temperature, Change C^o” value was -2.3 C^o.
With `COc1ccc(C2Sc3ccccc3N(CCN(C)C)C(=O)C2=O)cc1` (centres unmarked) [Ia, 2-(4-methoxyphenyl)-2,3-dihydro-5-(2-dimethylaminoethyl)-1,5-benzothiazepine-3,4(5H)-dione], in series [1] (60 mg/kg), the “Rectal Temperature, Average at 0.5-2.0 Hours Post-tretment” value was found to be 38.7 C^o; the “Rectal Temperature (C^o, Mean+ S.D.), Time after Treatment (hour) 0” value came to 39.7±0.15 C^o; the “Rectal Temperature (C^o, Mean+ S.D.), Time after Treatment (hour) 0.5” value was determined as 38.4±0.57 C^o; the “Rectal Temperature (C^o, Mean+ S.D.), Time after Treatment (hour) 1.0” value amounted to 38.4±0.35 C^o. In series [1] (60 mg/kg), the “Rectal Temperature (C^o, Mean+ S.D.), Time after Treatment (hour) 1.5” value is recorded as 38.8±0.49 C^o; the “Rectal Temperature (C^o, Mean+ S.D.), Time after Treatment (hour) 2.0” value is listed as 39.0±0.51 C^o; the “Rectal Temperature, Change C^o” value is given as -1.1 C^o. In the series with Mice (10 mg/kg), the “No. of dead Animals, Day of test 0” value stood at 0; the “No. of dead Animals, Day of test 1” value was found to be 0; the “No. of dead Animals, Day of test 2” value amounted to 0; the “No. of dead Animals, Total” value came out at 0. For the same molecule, in the series on Mice (30 mg/kg), the “No. of dead Animals, Day of test 0” value came out at 0; the “No. of dead Animals, Day of test 1” value turned out to be 0; the “No. of dead Animals, Day of test 2” value came to 0; the “No. of dead Animals, Total” value was 0. Also, in the series with Mice (100 mg/kg), the “No. of dead Animals, Day of test 0” value came out at 0; the “No. of dead Animals, Day of test 1” value is given as 0; the “No. of dead Animals, Day of test 2” value worked out at 0; the “No. of dead Animals, Total” value was found to be 0. In the series with Mice (300 mg/kg), the “No. of dead Animals, Day of test 0” value stood at 2 and the “No. of dead Animals, Total” value is 2. Also, the “Minimum Acute Lethal Dose” value in the series with Mice (mortality counted on days 0, 1 and 2) was 300 mg/kg. Also, in the series on writhing syndrome (setting [3]), the “% Change from Control” value is -92.7% and the “No. of Writhes (Mean + S.D.)” value is 0.8 ± 1.3. For the same molecule, in the series with writhing syndrome (setting [4]), the “% Change from Control” value was -100.0% and the “No. of Writhes (Mean + S.D.)” value worked out at 0.0 ± 0.0.
